In patent US20230279016A1, “Tetrahydropyrazolopyrimidines and Related Analogs for Inhibiting YAP/TAZ-TEAD” (THE KATHOLIEKE UNIVERSITEIT LEUVEN, priority 2021, published 2023):

Tested on: YAP/TAZ-TEAD transcription
Assay: Reporter gene assay for measuring the inhibition of YAP/TAZ-TEAD transcription (TEAD-responsive element luciferase reporter in Hek293T cells)
Assay type: cell-based
Details: Hek293T cells transiently transfected with TEAD-responsive element luciferase reporter, 24 hours incubation
Procedure: Hek293T cells are cultured in DMEM supplemented with 10% fetal bovine serum, Sodium pyruvate, Sodium bicarbonate, L-glutamine. The cells are harvested and transiently transfected with TEAD-responsive element luciferase reporter. Transfected cells are plated in 384-wells plate containing pre-diluted compounds. After 24 hours incubation at 37° C./5%CO2, assay plates were cooled down to RT and levelled to an equal volume per well, prior to the addition of 25 uL luciferase substrate SteadyLite (Perkin Elmer)/well. The plate was shaken for 10 min at 600 rpm, centrifuged for 1min at 500 rpm and measured with an Envision reader (PerkinElmer). The amount of relative light units produced by the TEAD reporter is used to calculated percent of inhibition.
The percent of reporter inhibition was calculated in the presence of a positive control inhibitor (100% inhibition) versus a condition with the presence of the vehicle basal activity of the reporter (0% inhibition). The ability of a test compound to inhibit this activity was determined as:
Percentage inhibition=[1-((RLU determined in the presence of vehicle—RLU determined for sample with test compound present) divided by (RLU determined in the presence of vehicle — RLU determined for sample with positive control inhibitor))] * 100
The activities of the example compounds tested are depicted in the table below. The activity ranges A, B and C refer to EC50 values in the reporter gene assay as described as follows: “A”: EC50 <1 μM; “B” : 1 μM≤EC50≤20 μM and “C” : EC50>20 μM, NT=not tested.

Compound: C=CC(=O)NCC1CN(c2ccc(C(F)(F)F)cc2)c2cnc(C(F)(F)F)n2C1 (single isomer, unassigned) [Cpd. No. 094-En2, (R)- or (S)-N-((6-(trifluoromethyl)-1-(4-(trifluoromethyl)phenyl)-1,2,3,4-tetrahydroimidazo[1,5-a]pyrimidin-3-yl)methyl)acrylamide]
- EC50: < 1 µM

Compound: C=CC(=O)NCC1CN(c2ccc(C(F)(F)F)cc2)c2cnc(C(F)(F)F)n2C1 (single isomer, unassigned) [Cpd. No. 094-En1, (R)- or (S)-N-((6-(trifluoromethyl)-1-(4-(trifluoromethyl)phenyl)-1,2,3,4-tetrahydroimidazo[1,5-a]pyrimidin-3-yl)methyl)acrylamide]
- EC50: < 1 µM

Compound: C=CC(=O)NCC1CN(C(=O)C2CCCCC2)c2ccnn2C1 (centres unmarked) [Cpd. No. 046, N-((4-(cyclohexanecarbonyl)-4,5,6,7-tetrahydropyrazolo[1,5-a]pyrimidin-6-yl)methyl)acrylamide]
- EC50 (Homo sapiens, HEK-293T, 24 h): 1 to 20 µM

Compound: CCC(=O)NCC1Cc2c(cnn2C)N(c2ccc(OC(F)(F)F)cc2)C1 (centres unmarked) [Cpd. No. 074, N-((1-methyl-4-(4-(trifluoromethoxy)phenyl)-4,5,6,7-tetrahydro-1H-pyrazolo[4,3-b]pyridin-6-yl)methyl)propionamide]
- EC50 (Homo sapiens, HEK-293T, 24 h): > 20 µM

Compound: C=CC(=O)NCC1CN(c2cccc(F)c2)c2ccnn2C1 (single isomer, unassigned) [Cpd. No. 004-En2, (R)- or (S)-N-((4-(3-fluorophenyl)-4,5,6,7-tetrahydropyrazolo[1,5-a]pyrimidin-6-yl)methyl)acrylamide]
- EC50: < 1 µM

Compound: C=CC(=O)NCC1CN(C(=O)C2CCCCC2)c2ccnn2C1 (single isomer, unassigned) [Cpd. No. 046-En1, (R)- or (S)-N-((4-(cyclohexanecarbonyl)-4,5,6,7-tetrahydropyrazolo[1,5-a]pyrimidin-6-yl)methyl)acrylamide]
- EC50: 1 to 20 µM

Compound: C=CC(=O)NCC1CN(c2ccc(OC(F)(F)F)cc2)c2cc(C(F)(F)F)nn2C1 (single isomer, unassigned) [Cpd. No. 035-En1, (R)- or (S)-N-((4-(4-(trifluoromethoxy)phenyl)-2-(trifluoromethyl)-4,5,6,7-tetrahydropyrazolo[1,5-a]pyrimidin-6-yl)methyl)acrylamide]
- EC50 (Homo sapiens, HEK-293T, 24 h): < 1 µM

Compound: C=CC(=O)NCC1CN(C(=O)c2ccccc2)c2ccnn2C1 (centres unmarked) [Cpd. No. 047, N-((4-benzoyl-4,5,6,7-tetrahydropyrazolo[1,5-a]pyrimidin-6-yl)methyl)acrylamide]
- EC50 (Homo sapiens, HEK-293T, 24 h): > 20 µM

Compound: C=CC(=O)NCC1CN(c2ccc(Cl)cc2)c2ccnn2C1 (single isomer, unassigned) [Cpd. No. 005-En2, (R)- or (S)-N-((4-(4-chlorophenyl)-4,5,6,7-tetrahydropyrazolo[1,5-a]pyrimidin-6-yl)methyl)acrylamide]
- EC50: < 1 µM

Compound: C=CC(=O)NCC1CN(c2ccc(C(F)F)cc2)c2ccnn2C1 (centres unmarked) [Cpd. No. 009, N-((4-(4-(difluoromethyl)phenyl)-4,5,6,7-tetrahydropyrazolo[1,5-a]pyrimidin-6-yl)methyl)acrylamide]
- EC50 (Homo sapiens, HEK-293T, 24 h): < 1 µM

Compound: CCC(=O)NCC1CN(Cc2cccc(C(F)(F)F)c2)c2ccnn2C1 (centres unmarked) [Cpd. No. 053, N-((4-(3-(trifluoro-methyl)benzyl)-4,5,6,7-tetrahydropyrazolo[1,5-a]pyrimidin-6-yl)-methyl)propionamide]
- EC50 (Homo sapiens, HEK-293T, 24 h): > 20 µM

Compound: C=CC(=O)NCC1CN(c2ccc(C(F)(F)F)cc2)c2cc(C#N)nn2C1 (single isomer, unassigned) [Cpd. No. 033-En1, (R)- or (S)-N-((2-cyano-4-(4-(trifluoromethyl)phenyl)-4,5,6,7-tetrahydropyrazolo[1,5-a]pyrimidin-6-yl)methyl)acrylamide]
- EC50: 1 to 20 µM

Compound: C=CC(=O)NCC1CN(c2ccc(OC(F)(F)F)cc2)c2cc(C)nn2C1 (centres unmarked) [Cpd. No. 030, N-((2-methyl-4-(4-(trifluoromethoxy)phenyl)-4,5,6,7-tetrahydropyrazolo[1,5-a]pyrimidin-6-yl)methyl)acrylamide]
- EC50 (Homo sapiens, HEK-293T, 24 h): < 1 µM

Compound: CC(=O)N(CC#N)CC1CN(c2ccc(C(F)(F)F)cc2)c2ccnn2C1 (centres unmarked) [Cpd. No. 043, N-(cyanomethyl)-N-((4-(4-(trifluoromethyl)phenyl)-4,5,6,7-tetrahydropyrazolo[1,5-a]pyrimidin-6-yl)methyl)acetamide]
- EC50 (Homo sapiens, HEK-293T, 24 h): > 20 µM

Compound: Cn1cc2c(n1)CC(CNS(C)(=O)=O)CN2c1ccc(OC(F)(F)F)cc1 (centres unmarked) [Cpd. No. 079, N-((2-methyl-4-(4-(trifluoromethoxy)phenyl)-4,5,6,7-tetrahydro-2H-pyrazolo[4,3-b]pyridin-6-yl)methyl)methanesulfonamide]
- EC50 (Homo sapiens, HEK-293T, 24 h): 1 to 20 µM

Compound: CCC(=O)NCC1Cc2c(cnn2C)N(c2ccc(C(F)(F)F)cc2)C1 (centres unmarked) [Cpd. No. 072, N-((1-methyl-4-(4-(trifluoromethyl)phenyl)-4,5,6,7-tetrahydro-1H-pyrazolo[4,3-b]pyridin-6-yl)methyl)propionamide]
- EC50 (Homo sapiens, HEK-293T, 24 h): > 20 µM

Compound: C=CC(=O)N1CCC2(C1)CN(c1ccc(C(F)(F)F)cc1)c1ccnn1C2 (single isomer, unassigned) [Cpd. No. 088-En1, (R)- or (S)-1-(4-(4-(trifluoromethyl)phenyl)-4,5-dihydro-7H-spiro[pyrazolo[1,5-a]pyrimidine-6,3′-pyrrolidin]-1′-yl)prop-2-en-1-one]
- EC50: < 1 µM

Compound: Cn1cc2c(n1)CC(CNS(C)(=O)=O)CN2c1ccc(C(F)(F)F)cc1 (centres unmarked) [Cpd. No. 077, N-((2-methyl-4-(4-(trifluoromethyl)phenyl)-4,5,6,7-tetrahydro-2H-pyrazolo[4,3-b]pyridin-6-yl)methyl)methanesulfonamide]
- EC50 (Homo sapiens, HEK-293T, 24 h): 1 to 20 µM

Compound: C=CC(=O)NCC1CN(c2ccc(C(F)(F)F)c(F)c2)c2ccnn2C1 (single isomer, unassigned) [Cpd. No. 015-En1, (R)- or (S)-N-((4-(3-fluoro-4-(trifluoromethyl)phenyl)-4,5,6,7-tetrahydropyrazolo[1,5-a]pyrimidin-6-yl)methyl)acrylamide]
- EC50: < 1 µM

Compound: CCC(=O)NCC1CN(c2ccc(C(F)(F)F)cc2)c2ccnn2C1 (single isomer, unassigned) [Cpd. No. 028-En2, (R)- or (S)-N-((4-(4-(trifluoromethyl)phenyl)-4,5,6,7-tetrahydropyrazolo[1,5-a]pyrimidin-6-yl)methyl)propionamide]
- EC50: < 1 µM

Compound: C=CC(=O)NCC1CN(S(=O)(=O)c2ccc(C(F)(F)F)cc2)c2ccnn2C1 (centres unmarked) [Cpd. No. 045-En1, N-((4-((4-(trifluoromethyl)phenyl)sulfonyl)-4,5,6,7-tetrahydropyrazolo[1,5-a]pyrimidin-6-yl)methyl)acrylamide]
- EC50: 1 to 20 µM

Compound: C=CC(=O)NCC1CN(C(=O)C2CCCCC2)c2ccnn2C1 (single isomer, unassigned) [Cpd. No. 046-En2, (R)- or (S)-N-((4-(cyclohexanecarbonyl)-4,5,6,7-tetrahydropyrazolo[1,5-a]pyrimidin-6-yl)methyl)acrylamide]
- EC50: 1 to 20 µM

Compound: C=CC(=O)NCC1CN(c2ccc(C(F)(F)F)cc2)c2cc(C(F)(F)F)nn2C1 (single isomer, unassigned) [Cpd. No. 034-En2, (R)- or (S)-N-((2-(trifluoromethyl)-4-(4-(trifluoromethyl)phenyl)-4,5,6,7-tetrahydropyrazolo[1,5-a]pyrimidin-6-yl)methyl)acrylamide]
- EC50: < 1 µM

Compound: C=CC(=O)NCC1CN(c2ccc(F)cc2)c2ccnn2C1 (single isomer, unassigned) [Cpd. No. 006-En1, (R)- or (S)-N-((4-(4-fluorophenyl)-4,5,6,7-tetrahydropyrazolo[1,5-a]pyrimidin-6-yl)methyl)acrylamide]
- EC50: 1 to 20 µM

Compound: C=CC(=O)NCC1CN(c2ccc3scnc3c2)c2ccnn2C1 (single isomer, unassigned) [Cpd. No. 026-En1, (R)- or (S)-N-((4-(benzo[d]thiazol-5-yl)-4,5,6,7-tetrahydropyrazolo[1,5-a]pyrimidin-6-yl)methyl)acrylamide]
- EC50 (Homo sapiens, HEK-293T, 24 h): 1 to 20 µM

Compound: C=CC(=O)NCC1CN(S(=O)(=O)c2ccc(C(F)(F)F)cc2)c2ccnn2C1 (centres unmarked) [Cpd. No. 045-En2, N-((4-((4-(trifluoromethyl)phenyl)sulfonyl)-4,5,6,7-tetrahydropyrazolo[1,5-a]pyrimidin-6-yl)methyl)acrylamide]
- EC50: > 20 µM

Compound: C=CC(=O)NCC1CN(c2ccc(C(F)(F)F)cc2)c2cc(CC3CC3)nn2C1 (single isomer, unassigned) [Cpd. No. 032-En1, (R)- or (S)-N-((2-(cyclopropylmethyl)-4-(4-(trifluoromethyl)phenyl)-4,5,6,7-tetrahydropyrazolo[1,5-a]pyrimidin-6-yl)methyl)acrylamide]
- EC50: < 1 µM

Compound: C=CC(=O)NC1CN(c2ccc(C(F)(F)F)cc2)c2ccnn2C1 (single isomer, unassigned) [Cpd. No. 061-En1, (R)- or (S)-N-(4-(4-(trifluoromethyl)phenyl)-4,5,6,7-tetrahydropyrazolo[1,5-a]pyrimidin-6-yl)acrylamide]
- EC50: < 1 µM

Compound: CCC(=O)NC1CN(c2ccc(C(F)(F)F)cc2)c2ccnn2C1 (centres unmarked) [Cpd. No. 062, N-(4-(4-(trifluoromethyl)phenyl)-4,5,6,7-tetrahydropyrazolo[1,5-a]pyrimidin-6-yl)propionamide]
- EC50 (Homo sapiens, HEK-293T, 24 h): > 20 µM
